Laboratory results taken from the NIST ThermoML archive (doi:10.1016/j.jct.2015.12.005).
Several values for one entry are separate records, joined by “and”; a condition that tells them apart may be missing. Identical values can stand only once.

Settings: for mass density: Vibrating tube method; for vapor or sublimation pressure: Twin ebulliometer; for Triple point temperature: Adiabatic calorimetry

c1ccc2c(c1)CCC2 [indane]
Settings | mass density [kg/m3] | molar entropy [J/K/mol] | vapor or sublimation pressure
5 K, Crystal 2, Vacuum adiabatic calorimetry | – | 0.09977 | –
10 K, Crystal 2, Vacuum adiabatic calorimetry | – | 0.873 | –
20 K, Crystal 2, Vacuum adiabatic calorimetry | – | 5.878 | –
30 K, Crystal 2, Vacuum adiabatic calorimetry | – | 13.6 | –
40 K, Crystal 2, Vacuum adiabatic calorimetry | – | 22.12 | –
50 K, Crystal 2, Vacuum adiabatic calorimetry | – | 30.71 | –
60 K, Crystal 2, Vacuum adiabatic calorimetry | – | 39.24 | –
62 K, Crystal 2, Vacuum adiabatic calorimetry | – | 40.96 | –
64 K, Crystal 2, Vacuum adiabatic calorimetry | – | 42.68 | –
66 K, Crystal 2, Vacuum adiabatic calorimetry | – | 44.42 | –
68 K, Crystal 2, Vacuum adiabatic calorimetry | – | 46.19 | –
70 K, Crystal 2, Vacuum adiabatic calorimetry | – | 48 | –
72 K, Crystal 2, Vacuum adiabatic calorimetry | – | 49.85 | –
73.83 K, Crystal 1, Vacuum adiabatic calorimetry | – | 53.65 | –
73.83 K, Crystal 2, Vacuum adiabatic calorimetry | – | 51.59 | –
74 K, Crystal 1, Vacuum adiabatic calorimetry | – | 53.79 | –
76 K, Crystal 1, Vacuum adiabatic calorimetry | – | 55.33 | –
78 K, Crystal 1, Vacuum adiabatic calorimetry | – | 56.85 | –
80 K, Crystal 1, Vacuum adiabatic calorimetry | – | 58.36 | –
90 K, Crystal 1, Vacuum adiabatic calorimetry | – | 65.61 | –
100 K, Crystal 1, Vacuum adiabatic calorimetry | – | 72.48 | –
120 K, Crystal 1, Vacuum adiabatic calorimetry | – | 85.36 | –
140 K, Crystal 1, Vacuum adiabatic calorimetry | – | 97.4 | –
160 K, Crystal 1, Vacuum adiabatic calorimetry | – | 108.88 | –
180 K, Crystal 1, Vacuum adiabatic calorimetry | – | 120 | –
200 K, Crystal 1, Vacuum adiabatic calorimetry | – | 130.94 | –
220 K, Crystal 1, Vacuum adiabatic calorimetry | – | 141.81 | –
221.79 K, Crystal 1, Vacuum adiabatic calorimetry | – | 142.78 | –
323.15 K, Liquid | 937.2 | – | –
338.12 K, Liquid | – | – | 2 kPa
344.12 K, Liquid | – | – | 2.666 kPa
348.15 K, Liquid | 915.6 | – | –
353.03 K, Liquid | – | – | 4 kPa
359.69 K, Liquid | – | – | 5.333 kPa
369.61 K, Liquid | – | – | 7.999 kPa
373.15 K, Liquid | 893.7 | – | –
377.06 K, Liquid | – | – | 10.67 kPa
383.1 K, Liquid | – | – | 13.33 kPa
389.37 K, Liquid | – | – | 16.66 kPa
394.58 K, Liquid | – | – | 19.93 kPa
398.15 K, Liquid | 871.2 | – | –
401.44 K, Liquid | – | – | 25.02 kPa and 25.02 kPa
408.36 K, Liquid | – | – | 31.17 kPa
415.33 K, Liquid | – | – | 38.56 kPa
422.35 K, Liquid | – | – | 47.37 kPa
423.15 K, Liquid | 848.5 | – | –
429.42 K, Liquid | – | – | 57.81 kPa
436.54 K, Liquid | – | – | 70.11 kPa
443.71 K, Liquid | – | – | 84.53 kPa
448.15 K, Liquid | 824.8 | – | –
450.93 K, Liquid | – | – | 101.32 kPa
458.2 K, Liquid | – | – | 120.78 kPa
465.53 K, Liquid | – | – | 143.23 kPa
472.9 K, Liquid | – | – | 169 kPa
473.15 K, Liquid | 799.8 | – | –
480.33 K, Liquid | – | – | 198.46 kPa
487.8 K, Liquid | – | – | 231.99 kPa
495.33 K, Liquid | – | – | 269.98 kPa
498.15 K, Liquid | 774 | – | –
523.15 K, Liquid | 745.8 | – | –

Liquid
Settings | molar entropy [J/K/mol]
221.79 K, Vacuum adiabatic calorimetry | 181.35
230 K, Vacuum adiabatic calorimetry | 187.35
240 K, Vacuum adiabatic calorimetry | 194.49
250 K, Vacuum adiabatic calorimetry | 201.46
260 K, Vacuum adiabatic calorimetry | 208.28
270 K, Vacuum adiabatic calorimetry | 214.98
280 K, Vacuum adiabatic calorimetry | 221.57
290 K, Vacuum adiabatic calorimetry | 228.06
298.15 K, Vacuum adiabatic calorimetry | 233.26
300 K, Vacuum adiabatic calorimetry | 234.44
310 K, Vacuum adiabatic calorimetry | 240.74
320 K, Vacuum adiabatic calorimetry | 246.96
330 K, Vacuum adiabatic calorimetry | 253.13
333.38 K, Vacuum adiabatic calorimetry | 255.19
340 K, Vacuum adiabatic calorimetry | 259.22
350 K, Vacuum adiabatic calorimetry | 265.26
360 K, Vacuum adiabatic calorimetry | 271.24
370 K, Vacuum adiabatic calorimetry | 277.19
380 K, Vacuum adiabatic calorimetry | 283.07
390 K, Vacuum adiabatic calorimetry | 288.92
400 K, Vacuum adiabatic calorimetry | 294.73
410 K, Vacuum adiabatic calorimetry | 300.49
420 K, Vacuum adiabatic calorimetry | 306.23
430 K, Vacuum adiabatic calorimetry | 311.92
440 K, Vacuum adiabatic calorimetry | 317.58
450 K, Small sample (50 mg) DSC | 323.22
460 K, Small sample (50 mg) DSC | 328.83
470 K, Small sample (50 mg) DSC | 334.43
480 K, Small sample (50 mg) DSC | 340.01
490 K, Small sample (50 mg) DSC | 345.57
500 K, Small sample (50 mg) DSC | 351.1
510 K, Small sample (50 mg) DSC | 356.62
520 K, Small sample (50 mg) DSC | 362.11
530 K, Small sample (50 mg) DSC | 367.58
540 K, Small sample (50 mg) DSC | 373.04
550 K, Small sample (50 mg) DSC | 378.48
560 K, Small sample (50 mg) DSC | 383.9
570 K, Small sample (50 mg) DSC | 389.31
580 K, Small sample (50 mg) DSC | 394.7
590 K, Small sample (50 mg) DSC | 400.08
600 K, Small sample (50 mg) DSC | 405.43

Settings | Triple point temperature [K]
Crystal 1 | 221.79
Crystal 2 | 73.83
